Assay results reported in ChEMBL document CHEMBL1201862, “PubChem BioAssay data set” (2004).
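Exposure lasted 48 hours, with cells grown in 96-well plates and compounds tested at five concentrations. GI50: concentration for 50% inhibition of growth.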 Calls of active or inactive are those of the source. No stated cut-off is given here; in the data, active = GI50 up to about 1.1 µM and inactive = higher.

Key:
Test in all cases: growth of human tumour cells (NCI), 48 h
HL-60 = test system: HL-60
SF-268 = test system: SF-268
SK-OV-3 = test system: SK-OV-3
SK-MEL-28 = test system: SK-MEL-28
OVCAR-8 = test system: OVCAR-8
U-251 = test system: U-251
M19-MEL = test system: M19-MEL
IGROV-1 = test system: IGROV-1
TK-10 = test system: TK-10
UACC-62 = test system: UACC-62
CAKI-1 = test system: CAKI-1
SN12C = test system: SN12C
SNB-75 = test system: SNB-75
MOLT-4 = test system: MOLT-4
HCC 2998 = test system: HCC 2998
NCI-H460 = test system: NCI-H460
SF-295 = test system: SF-295
SR = test system: SR

Q: `CCOC(=O)C1=C(Nc2ccc(Cl)c(Cl)c2)OC/C1=N\NS(=O)(=O)c1ccc(C)cc1` was tested. Which GI50 (HL-60) did it give?
A: 27.9 µM (inactive)

Q: And the GI50 (SF-268)?
A: 45.8 µM (inactive)

Q: And the GI50 (SK-OV-3)?
A: 75.7 µM (inactive)

Q: And the GI50 (SK-MEL-28)?
A: 64.7 µM (inactive)

Q: What about the GI50 (OVCAR-8) of the same molecule?
A: 75.2 µM (inactive)

Q: And the GI50 (U-251)?
A: 66.5 µM (inactive)

Q: What about the GI50 (M19-MEL) of the same molecule?
A: 94.6 µM (inactive)

Q: And the GI50 (IGROV-1)?
A: 68.9 µM (inactive)

Q: And the GI50 (TK-10)?
A: 42.5 µM (inactive)

Q: And the GI50 (UACC-62)?
A: 39.4 µM (inactive)

Q: And the GI50 (CAKI-1)?
A: 44.2 µM (inactive)

Q: What about the GI50 (SN12C) of the same molecule?
A: 57.8 µM (inactive)

Q: And the GI50 (SNB-75)?
A: 35.8 µM (inactive)

Q: And the GI50 (MOLT-4)?
A: 26.3 µM (inactive)

Q: And the GI50 (HCC 2998)?
A: 33.5 µM (inactive)

Q: What about the GI50 (NCI-H460) of the same molecule?
A: 34.3 µM (inactive)

Q: And the GI50 (SF-295)?
A: > 100 µM (inactive)

Q: `CC(=O)N(/N=C\c1ccc([N+](=O)[O-])cc1)c1ccccc1` was tested. Which GI50 (SF-268) did it give?
A: > 100 µM (inactive)

Q: And the GI50 (SK-OV-3)?
A: > 100 µM (inactive)

Q: And the GI50 (SK-MEL-28)?
A: > 100 µM (inactive)

Q: What about the GI50 (OVCAR-8) of the same molecule?
A: > 100 µM (inactive)

Q: What about the GI50 (U-251) of the same molecule?
A: > 100 µM (inactive)

Q: What about the GI50 (M19-MEL) of the same molecule?
A: > 100 µM (inactive)

Q: And the GI50 (IGROV-1)?
A: > 100 µM (inactive)

Q: And the GI50 (TK-10)?
A: > 100 µM (inactive)

Q: What about the GI50 (UACC-62) of the same molecule?
A: > 100 µM (inactive)

Q: What about the GI50 (CAKI-1) of the same molecule?
A: > 100 µM (inactive)

Q: And the GI50 (SN12C)?
A: > 100 µM (inactive)

Q: What about the GI50 (SNB-75) of the same molecule?
A: 48.3 µM (inactive)

Q: What about the GI50 (HCC 2998) of the same molecule?
A: > 100 µM (inactive)

Q: And the GI50 (NCI-H460)?
A: > 100 µM (inactive)

Q: What about the GI50 (SF-295) of the same molecule?
A: > 100 µM (inactive)

Q: For `CCOC(=O)Cc1nc(/C(C#N)=C/c2ccco2)[nH]c(=O)c1C#N`, which GI50 (HL-60) is on record?
A: 95.3 µM (inactive)

Q: And the GI50 (SK-OV-3)?
A: > 100 µM (inactive)

Q: And the GI50 (OVCAR-8)?
A: > 100 µM (inactive)

Q: What about the GI50 (U-251) of the same molecule?
A: > 100 µM (inactive)

Q: And the GI50 (M19-MEL)?
A: > 100 µM (inactive)

Q: And the GI50 (IGROV-1)?
A: > 100 µM (inactive)

Q: And the GI50 (TK-10)?
A: > 100 µM (inactive)

Q: And the GI50 (UACC-62)?
A: 35.4 µM (inactive)

Q: What about the GI50 (CAKI-1) of the same molecule?
A: > 100 µM (inactive)

Q: What about the GI50 (SN12C) of the same molecule?
A: > 100 µM (inactive)

Q: What about the GI50 (SNB-75) of the same molecule?
A: > 100 µM (inactive)

Q: What about the GI50 (SR) of the same molecule?
A: 97.1 µM (inactive)

Q: What about the GI50 (MOLT-4) of the same molecule?
A: > 100 µM (inactive)

Q: What about the GI50 (HCC 2998) of the same molecule?
A: > 100 µM (inactive)

Q: What about the GI50 (NCI-H460) of the same molecule?
A: > 100 µM (inactive)

Q: What about the GI50 (SF-295) of the same molecule?
A: 43.9 µM (inactive)

Q: With `Clc1ccc2c(Cl)ncnc2c1I` as the molecule, how does the GI50 (HL-60) read?
A: 20.1 µM (inactive)

Q: What about the GI50 (SF-268) of the same molecule?
A: > 100 µM (inactive)

Q: What about the GI50 (SK-OV-3) of the same molecule?
A: > 100 µM (inactive)

Q: And the GI50 (SK-MEL-28)?
A: > 100 µM (inactive)

Q: What about the GI50 (OVCAR-8) of the same molecule?
A: > 100 µM (inactive)

Q: What about the GI50 (U-251) of the same molecule?
A: > 100 µM (inactive)

Q: What about the GI50 (M19-MEL) of the same molecule?
A: > 100 µM (inactive)

Q: And the GI50 (IGROV-1)?
A: 52.5 µM (inactive)

Q: What about the GI50 (TK-10) of the same molecule?
A: > 100 µM (inactive)

Q: What about the GI50 (UACC-62) of the same molecule?
A: 63.7 µM (inactive)

Q: What about the GI50 (CAKI-1) of the same molecule?
A: 64 µM (inactive)

Q: What about the GI50 (SN12C) of the same molecule?
A: > 100 µM (inactive)

Q: What about the GI50 (SNB-75) of the same molecule?
A: 14.6 µM (inactive)

Q: What about the GI50 (SR) of the same molecule?
A: 31.2 µM (inactive)

Q: And the GI50 (MOLT-4)?
A: 24.8 µM (inactive)

Q: What about the GI50 (HCC 2998) of the same molecule?
A: > 100 µM (inactive)

Q: What about the GI50 (NCI-H460) of the same molecule?
A: > 100 µM (inactive)

Q: And the GI50 (SF-295)?
A: > 100 µM (inactive)

Q: Which GI50 (HL-60) does the source give for `O=C1c2cccc([N+](=O)[O-])c2C(=O)c2nccnc21` here?
A: 2.15 µM (inactive)

Q: What about the GI50 (SK-MEL-28) of the same molecule?
A: 1.63 µM (inactive)

Q: What about the GI50 (OVCAR-8) of the same molecule?
A: 2.25 µM (inactive)

Q: What about the GI50 (U-251) of the same molecule?
A: 1.4 µM (inactive)

Q: And the GI50 (M19-MEL)?
A: 0.122 µM (active)

Q: What about the GI50 (TK-10) of the same molecule?
A: 2.06 µM (inactive)

Q: And the GI50 (UACC-62)?
A: 1.32 µM (inactive)

Q: And the GI50 (CAKI-1)?
A: 4.86 µM (inactive)

Q: What about the GI50 (SN12C) of the same molecule?
A: 1.66 µM (inactive)

Q: And the GI50 (SNB-75)?
A: 1.07 µM (active)

Q: What about the GI50 (SR) of the same molecule?
A: 2.05 µM (inactive)

Q: And the GI50 (MOLT-4)?
A: 2.5 µM (inactive)

Q: And the GI50 (HCC 2998)?
A: 2.62 µM (inactive)

Q: And the GI50 (NCI-H460)?
A: 1.46 µM (inactive)

Q: What about the GI50 (SF-295) of the same molecule?
A: 1.82 µM (inactive)

Q: `COc1ccccc1/C=C(\NC(=O)c1ccccc1)c1nc2ccccc2[nH]1` was tested. Which GI50 (SF-268) did it give?
A: 37.3 µM (inactive)

Q: What about the GI50 (SK-OV-3) of the same molecule?
A: 51.1 µM (inactive)

Q: And the GI50 (SK-MEL-28)?
A: 36.9 µM (inactive)

Q: What about the GI50 (OVCAR-8) of the same molecule?
A: 38 µM (inactive)

Q: What about the GI50 (U-251) of the same molecule?
A: 47.2 µM (inactive)

Q: What about the GI50 (M19-MEL) of the same molecule?
A: 38.3 µM (inactive)

Q: What about the GI50 (IGROV-1) of the same molecule?
A: 32.8 µM (inactive)

Q: And the GI50 (TK-10)?
A: 39 µM (inactive)

Q: And the GI50 (UACC-62)?
A: 45 µM (inactive)

Q: And the GI50 (CAKI-1)?
A: 87.3 µM (inactive)

Q: What about the GI50 (SN12C) of the same molecule?
A: 48.8 µM (inactive)

Q: And the GI50 (SNB-75)?
A: 31.5 µM (inactive)

Q: What about the GI50 (MOLT-4) of the same molecule?
A: 36.7 µM (inactive)

Q: And the GI50 (NCI-H460)?
A: 50.8 µM (inactive)

Q: What does the source list for `O=C(O)c1ccc(C2C(=O)N[C@@H]3CCC[C@H]23)cc1` (stereo not given in full)?
A: GI50 (HL-60): > 100 µM (inactive); GI50 (SF-268): > 100 µM (inactive); GI50 (SK-OV-3): > 100 µM (inactive); GI50 (SK-MEL-28): > 100 µM (inactive); GI50 (OVCAR-8): > 100 µM (inactive); GI50 (U-251): > 100 µM (inactive); GI50 (M19-MEL): > 100 µM (inactive); GI50 (IGROV-1): > 100 µM (inactive); GI50 (TK-10): > 100 µM (inactive); GI50 (UACC-62): > 100 µM (inactive); GI50 (CAKI-1): > 100 µM (inactive); GI50 (SNB-75): > 100 µM (inactive); GI50 (MOLT-4): > 100 µM (inactive); GI50 (HCC 2998): > 100 µM (inactive); GI50 (NCI-H460): > 100 µM (inactive); GI50 (SF-295): > 100 µM (inactive)

Q: For `CC(CCC[C@H](C)CO)[C@H]1[C@@H](O)C(O)C2[C@@H]3C[C@@H](O)C4(O)C[C@@H](O)CC[C@]4(C)C3CC[C@@]21C` (stereo not given in full), which GI50 (HL-60) is on record?
A: 44.9 µM (inactive)

Q: What about the GI50 (SF-268) of the same molecule?
A: > 100 µM (inactive)

Q: What about the GI50 (SK-OV-3) of the same molecule?
A: > 100 µM (inactive)

Q: What about the GI50 (SK-MEL-28) of the same molecule?
A: > 100 µM (inactive)

Q: What about the GI50 (OVCAR-8) of the same molecule?
A: > 100 µM (inactive)

Q: And the GI50 (U-251)?
A: > 100 µM (inactive)

Q: And the GI50 (M19-MEL)?
A: > 100 µM (inactive)

Q: What about the GI50 (IGROV-1) of the same molecule?
A: > 100 µM (inactive)

Q: And the GI50 (TK-10)?
A: > 100 µM (inactive)

Q: What about the GI50 (UACC-62) of the same molecule?
A: > 100 µM (inactive)

Q: What about the GI50 (CAKI-1) of the same molecule?
A: > 100 µM (inactive)

Q: What about the GI50 (SN12C) of the same molecule?
A: > 100 µM (inactive)

Q: What about the GI50 (SNB-75) of the same molecule?
A: > 100 µM (inactive)

Q: What about the GI50 (SR) of the same molecule?
A: 36 µM (inactive)

Q: What about the GI50 (MOLT-4) of the same molecule?
A: > 100 µM (inactive)

Q: And the GI50 (HCC 2998)?
A: > 100 µM (inactive)

Q: What about the GI50 (NCI-H460) of the same molecule?
A: > 100 µM (inactive)

Q: What about the GI50 (SF-295) of the same molecule?
A: > 100 µM (inactive)

Q: For `CCN(CC)CCOc1ccc(CCc2cc(OC)c(OC)c(OC)c2)cc1`, which GI50 (HL-60) is on record?
A: 18.9 µM (inactive)

Q: And the GI50 (SF-268)?
A: > 100 µM (inactive)

Q: And the GI50 (SK-MEL-28)?
A: 78 µM (inactive)

Q: What about the GI50 (OVCAR-8) of the same molecule?
A: 67.9 µM (inactive)

Q: And the GI50 (U-251)?
A: 45.3 µM (inactive)

Q: And the GI50 (M19-MEL)?
A: 23.8 µM (inactive)

Q: What about the GI50 (IGROV-1) of the same molecule?
A: > 100 µM (inactive)

Q: And the GI50 (TK-10)?
A: 30.5 µM (inactive)

Q: What about the GI50 (UACC-62) of the same molecule?
A: 26.1 µM (inactive)

Q: What about the GI50 (CAKI-1) of the same molecule?
A: 53.2 µM (inactive)

Q: And the GI50 (SN12C)?
A: > 100 µM (inactive)

Q: What about the GI50 (SNB-75) of the same molecule?
A: 31.3 µM (inactive)

Q: What about the GI50 (SR) of the same molecule?
A: 31.3 µM (inactive)

Q: What about the GI50 (MOLT-4) of the same molecule?
A: 21.9 µM (inactive)

Q: What about the GI50 (NCI-H460) of the same molecule?
A: 38.5 µM (inactive)

Q: And the GI50 (SF-295)?
A: 18.4 µM (inactive)
